Two compounds from patent US10617664B2, “Brain derived PPARα ligands” (Rush University Medical Center, priority 2015, dated 2020) can be followed below.

In one experiment the target is T1, Y314D-Ppara (Mus musculus, UniProt P23204, Y314D).
T1 construct: the entire mouse GFP-Ppara gene (GFP-FLPpara) and three different mutated genes were cloned; expressed in transfected cells; host or cells: Ppara-null mouse hippocampal neurons, lentiviral transduction
T1 sequence (P23204 1-468 Y314D): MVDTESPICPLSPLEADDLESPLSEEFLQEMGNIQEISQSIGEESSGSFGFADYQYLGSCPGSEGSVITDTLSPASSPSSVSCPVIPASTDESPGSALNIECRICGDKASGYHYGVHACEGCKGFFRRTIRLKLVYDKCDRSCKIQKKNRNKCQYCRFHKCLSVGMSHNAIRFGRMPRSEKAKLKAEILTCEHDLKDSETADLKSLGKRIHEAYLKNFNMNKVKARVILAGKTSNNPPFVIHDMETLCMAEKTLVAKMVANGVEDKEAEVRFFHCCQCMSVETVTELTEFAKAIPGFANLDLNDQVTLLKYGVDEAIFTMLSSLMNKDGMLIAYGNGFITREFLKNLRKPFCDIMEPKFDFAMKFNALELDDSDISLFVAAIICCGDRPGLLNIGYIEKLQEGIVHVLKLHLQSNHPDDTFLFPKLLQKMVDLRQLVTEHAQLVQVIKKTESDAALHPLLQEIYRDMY
The experiment can be described thus: GC-MS of GFP-affinity purified extract of transduced Ppara-null hippocampal neurons. The following applies: lenti-GFP-Y314D-Ppara transduced Ppara-null neurons. It counts as binding. The protocol:
Lentivirus-mediated de novo expression studies were performed, where wild type full-length (GFP-FLPpara) was overexpressed and three different LBD-mutated PPARα (GFP-Y314D, GFP-Y464D and GFP-Y314D/Y464D Ppara) recombinant proteins (FIG. 9D) were expressed in neurons followed by binding analyses with three endogenous ligands. Briefly, site directed mutagenesis was performed in the mouse PPARα with Y314 and Y464 residues replaced separately or together with aspartate (D). […] We normalized peak area of different ligands with that of internal standard and then quantified the binding affinity of these ligands with different construct of PPARα by peak integration statistics (Table 1).
Either E18 cultured mouse hippocampal neurons or hippocampal tissue of 6-8 week old male C57/BL6 mice were homogenized in ice-cold nondetergent hypotonic buffer [10 mM HEPES (pH 7.9), 1.5 mM MgCl2, 10 mM KCl, […], protease and phosphatase inhibitor cocktail]. […] The organic phase was collected, evaporated in the SpeedVac, reconstituted with 30 μL chloroform or acetonitrile, and then analyzed by GC-MS. […] After that, the eluate was collected from the column with 5M NaCl solution, concentrated with PD-10 desalting column and analyzed for GC-MS. […]

Test in experiment [1]: as above
It is filed as binding, mouse. The following applies: Vector Only; for Rel. Abundance (RA): normalized with internal standard. The protocol: Lentivirus-mediated de novo expression studies were performed, where wild type full-length (GFP-FLPpara) was overexpressed and three different LBD-mutated PPARα (GFP-Y314D, GFP-Y464D and GFP-Y314D/Y464D Ppara) recombinant proteins (FIG. 9D) were expressed in neurons followed by binding analyses with three endogenous ligands. Briefly, site directed mutagenesis was performed in the mouse PPARα with Y314 and Y464 residues replaced separately or together with aspartate (D). After that, the entire mouse GFP-Ppara gene (GFP-FLPpara) and three different mutated genes were cloned in the pLenti6/V5-TOPO lentiviral expression vector (FIG. 3D), packaged in lentivirus particle with HEK293FT cells, purified full length and mutated PPARα proteins in a GFP-affinity column, and finally thermal shift assays were performed in order to analyze their conformational stability. […] After 48 h of transduction, the cells were homogenized, passed through GFP-affinity column, eluted, fractionated with chloroform-methanol, and finally analyzed by GC-MS for the detection of ligands. […] On the other hand, mutation of the Y464 completely knocked down the ligand binding affinity as we observed profound loss of ligand binding in both lenti-GFP-Y464D-Ppara (FIG. 3K, FIG. 9K) and lenti-GFP-Y314D/Y464D-Ppara (FIG. 3L, FIG. 9L)-transduced Ppara-null neurons. Throughout these analyses, we used 2,4-bis (α, α-dimethyl benzyl) phenol as an internal standard (Supplementary FIG. 5A-F). We normalized peak area of different ligands with that of internal standard and then quantified the binding affinity of these ligands with different construct of PPARα by peak integration statistics (Table 1).
Either E18 cultured mouse hippocampal neurons or hippocampal tissue of 6-8 week old male C57/BL6 mice were homogenized in ice-cold nondetergent hypotonic buffer [10 mM HEPES (pH 7.9), 1.5 mM MgCl2, 10 mM KCl, […], protease and phosphatase inhibitor cocktail]. After 10 min of additional incubation in the hypotonic buffer, the homogenate was centrifuged at 8,000 g at 4° C. for 10 min. Next, the pellet was homogenized in ice-cold extraction buffer [10 mM HEPES (pH 7.9), 1.5 mM MgCl2, 0.21 M NaCl, 0.2 mM EDTA, 25% (v/v) glycerol, […], protease and phosphatase inhibitor cocktail], placed on a rotating shaker at 4° C. for 1 h, and then centrifuged at 18,000 g for 10 min. The supernatant (nuclear fraction) was incubated with 1.5 μg of GST PPARα LBD (Protein One) at 4° C. for 6 h in a rotating shaker. The reaction mixture was passed through glutathione column (Pierce® GST Spin Purification Kit), washed four times [50 mM Tris HCl (pH 7.4), 100 mM NaCl, protease and phosphatase inhibitor cocktail] and then eluted with free glutathione. The eluate was transferred to methanol:chloroform:water (4:3:1) mixture and then centrifuged at 14,000 rpm for 90 sec. The organic phase was collected, evaporated in the SpeedVac, reconstituted with 30 μL chloroform or acetonitrile, and then analyzed by GC-MS. In another case, E18 cultured hippocampal neurons were transduced with lentiviral particles conjugated with PPARα-LBD or different GFP-tagged mutated constructs followed by pulling down with anti-PPARα antibody or passing the extract through GFP-column of Vector Fusion-Aid GFP Kit (Cat # MB-0732). After that, the eluate was collected from the column with 5M NaCl solution, concentrated with PD-10 desalting column and analyzed for GC-MS.
A JEOL GCMate II (JEOL USA, Peabody Mass.) mass spectrometer was used in these experiments. The gas chromatograph was an Agilent 6890Plus (Wilmington Del.) equipped with a G1513A auto-injector with 100 vial sample tray connected to a G1512A controller. The gas chromatography column was a fused silica capillary column with a nonpolar 5% phenyl 95% dimethylpolysiloxane phase (Agilent HP-5 ms), 30 meters long, 0.25 mm internal diameter, 0.25 μm film thickness. […]

In the case of `CCCCCCCCC=CCCCCCCCC(N)=O` [OCT, 9-octadecenamide], the “amount detected in nuclear extract by GC-MS” value at Y314D-Ppara is on record as “low amount”. In experiment [1], the “% RA” value amounted to 8.69%, the Adjusted peak area turned out to be 79623 and the “Rel. Abundance (RA)” value was determined as 0.08689.
Consider `CCCCCCCCCCCCCCCC(N)=O` [HEX, hexadecanamide], for which the “amount detected in nuclear extract by GC-MS” value at Y314D-Ppara was “low amount”. In addition, in experiment [1], the “% RA” value is 1.92%, the Adjusted peak area was found to be 17632 and the “Rel. Abundance (RA)” value worked out at 0.01924.
